GI50 and TGI data for eleven compounds are collected here from PubChem BioAssay (NCI).

“And” between values parts separate entries of the source, which are not always exact repeats. Equal entries are not always repeated.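 48-hour exposure; five concentrations; linearly interpolated endpoints. Here, GI50 denotes the concentration required for 50% inhibition of growth. TGI is the concentration that stops growth completely.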 A value given as a limit tells only on which side of the number the result lay.

Among the test systems are SF-268 CNS; ACHN renal; DU-145 prostate; HCC-2998 colon; UACC-62 melanoma; CAKI-1 renal; SW-620 colon; RXF 393 renal; SK-MEL-5 melanoma; BT-549 breast.
What all share (test): NCI tumour cell line growth inhibition, 48 h

As to `O=C(Oc1ccccc1)c1cc(O)c(O)c(O)c1`, the GI50 in the assay with SF-268 CNS was 8.15 µM; in the assay with ACHN renal, 9.72 µM; in the assay on DU-145 prostate, 15.7 µM; in the assay with HCC-2998 colon, 13.5 µM; in the assay on UACC-62 melanoma it was 8.45 µM; in the assay on CAKI-1 renal, 15.4 µM. The GI50 in the assay on SW-620 colon was 14.3 µM; in the assay with RXF 393 renal it was 25.6 µM; in the assay on SK-MEL-5 melanoma it was 11.4 µM; with BT-549 breast, 15.6 µM. Further, the TGI was over 100 µM in the assay on SF-268 CNS; over 100 µM in the assay on ACHN renal; over 100 µM in the assay on DU-145 prostate; 44.3 µM in the assay with HCC-2998 colon; 56.4 µM in the assay on UACC-62 melanoma; over 100 µM in the assay on CAKI-1 renal. Further, the TGI in the assay on SW-620 colon is over 100 µM; with RXF 393 renal, over 100 µM; in the assay on SK-MEL-5 melanoma, 38.8 µM; in the assay with BT-549 breast, 83.2 µM.

Regarding `O=C1C(NCCO)=C(N2CC2)C(=O)C(NCCO)=C1N1CC1`, the TGI was 76.8 µM with SF-268 CNS; over 100 µM in the assay on ACHN renal; over 100 µM with DU-145 prostate; over 100 µM in the assay on HCC-2998 colon; 99.5 µM with UACC-62 melanoma; over 100 µM in the assay on CAKI-1 renal. The TGI is over 83.3 µM in the assay on SW-620 colon, over 100 µM in the assay with RXF 393 renal, over 85.5 µM with SK-MEL-5 melanoma and over 100 µM in the assay with BT-549 breast.

Consider `Cc1c(C(=O)/C=C/c2ccc(O)cc2)nnn1-c1ccnc2c(C(F)(F)F)cccc12`, for which the GI50 with SF-268 CNS is 4.08 µM; in the assay on ACHN renal it was 31.5 µM; with DU-145 prostate, 30.1 µM; in the assay with HCC-2998 colon, 20.9 µM; with UACC-62 melanoma, 18.7 µM; in the assay with CAKI-1 renal, 28.6 µM. In addition, the GI50 is 27.1 µM with SW-620 colon, 16.6 µM in the assay on RXF 393 renal, 4.81 µM in the assay on SK-MEL-5 melanoma and 60.2 µM in the assay on BT-549 breast. For the same compound, the TGI in the assay with SF-268 CNS is 71.8 µM; with ACHN renal, over 100 µM; with DU-145 prostate, over 100 µM; in the assay on HCC-2998 colon, over 100 µM; in the assay with UACC-62 melanoma it was over 100 µM; in the assay with CAKI-1 renal, over 100 µM. Further, the TGI is over 100 µM with SW-620 colon, 67.3 µM with RXF 393 renal, 24.8 µM in the assay with SK-MEL-5 melanoma and over 100 µM with BT-549 breast.

As for `Cn1cnc2c(F)c(Nc3ccc(Br)cc3Cl)c(C(=O)NOCCO)cc21`, the GI50 was > 10 µM and 60.5 µM with SF-268 CNS; 9.92 µM and 29 µM in the assay with ACHN renal; > 10 µM and 74.6 µM in the assay with DU-145 prostate; 0.0213 µM and < 0.0171 µM in the assay on HCC-2998 colon; 0.0123 µM and 0.0212 µM in the assay with UACC-62 melanoma; > 2.6 µM and 17.9 µM in the assay with CAKI-1 renal. The GI50 with SW-620 colon is 0.0436 µM and 0.0226 µM; in the assay with RXF 393 renal it was 1.9 µM and 9.28 µM; with SK-MEL-5 melanoma, 2.4 µM and 0.95 µM; with BT-549 breast, > 10 µM and 30 µM. The TGI was over 100 µM in the assay with SF-268 CNS; over 100 µM in the assay with ACHN renal; over 100 µM in the assay on DU-145 prostate; > 10 µM and 2.77 µM in the assay on HCC-2998 colon; over 100 µM in the assay on CAKI-1 renal; over 100 µM in the assay on SW-620 colon. For the same compound, the TGI with RXF 393 renal is > 10 µM and 78 µM; in the assay on SK-MEL-5 melanoma, over 100 µM; in the assay with BT-549 breast, over 100 µM.

Turning to `CN(C)c1cccc2[nH]c(-c3[nH]ncc3Nc3ccnc(N)n3)nc12`, the GI50 was 0.0179 µM with SF-268 CNS; 0.0165 µM with ACHN renal; 0.0175 µM in the assay on DU-145 prostate; 0.0276 µM in the assay on HCC-2998 colon; 0.0136 µM in the assay with UACC-62 melanoma; under 0.01 µM with CAKI-1 renal. In addition, the GI50 in the assay on SW-620 colon is under 0.0141 µM; with RXF 393 renal it was under 0.01 µM; with SK-MEL-5 melanoma it was 0.0295 µM; in the assay on BT-549 breast, 0.0165 µM. For the same compound, the TGI in the assay on SF-268 CNS came to 0.104 µM; with ACHN renal it was 0.679 µM; in the assay on DU-145 prostate it was 1.03 µM; in the assay on HCC-2998 colon it was 0.488 µM; with UACC-62 melanoma, 0.0701 µM; with CAKI-1 renal it was 1.01 µM. In addition, the TGI was 1.22 µM with SW-620 colon, under 0.0168 µM in the assay on RXF 393 renal, 0.15 µM with SK-MEL-5 melanoma and 0.0979 µM in the assay on BT-549 breast.

As to `N#C/C(=C\c1cn(-c2ccccc2)c2ccccc12)C(=O)O`, the GI50 in the assay with SF-268 CNS was 43.4 µM; in the assay on ACHN renal, 44 µM; in the assay on DU-145 prostate, 44.2 µM; in the assay with HCC-2998 colon, 49.5 µM; with UACC-62 melanoma, 23.8 µM; with CAKI-1 renal it was 63.1 µM. For the same compound, the GI50 in the assay on SW-620 colon is 48.3 µM; with RXF 393 renal it was 28.7 µM; in the assay with SK-MEL-5 melanoma, 38.4 µM; in the assay on BT-549 breast, 36.6 µM. For the same compound, the TGI is over 100 µM with SF-268 CNS; over 100 µM in the assay with ACHN renal; over 100 µM with DU-145 prostate; over 100 µM in the assay with HCC-2998 colon; 85.6 µM in the assay on UACC-62 melanoma; over 100 µM with CAKI-1 renal. Moreover, the TGI in the assay on SW-620 colon, in the assay on RXF 393 renal, in the assay with SK-MEL-5 melanoma and with BT-549 breast was over 100 µM each time.

In the case of `COc1n[n+]([O-])c(C)cc1[N+](=O)[O-]`, the GI50 was 18.1 µM with SF-268 CNS; 5.14 µM in the assay with ACHN renal; 15.7 µM with DU-145 prostate; 14.3 µM in the assay on HCC-2998 colon; 10.7 µM in the assay with UACC-62 melanoma; 4.84 µM in the assay with CAKI-1 renal. The GI50 was 15.7 µM in the assay with SW-620 colon, 13.3 µM in the assay with RXF 393 renal, 11.3 µM in the assay with SK-MEL-5 melanoma and 18.9 µM in the assay with BT-549 breast. Moreover, the TGI worked out at 39.4 µM in the assay on SF-268 CNS; 18.1 µM in the assay on ACHN renal; 29.3 µM in the assay with DU-145 prostate; 27.6 µM in the assay with HCC-2998 colon; 23.7 µM in the assay with UACC-62 melanoma; 19.1 µM in the assay on CAKI-1 renal. Besides, the TGI with SW-620 colon turned out to be 39.6 µM; with RXF 393 renal, 28.7 µM; in the assay on SK-MEL-5 melanoma, 24.5 µM; with BT-549 breast, 33.2 µM.

`COc1ccc(NC2=C(Sc3nc(C)cc(C)n3)C(=O)N(Cc3ccccc3)C2=O)cc1Cl`: the GI50 in the assay with SF-268 CNS was over 160 µM; in the assay on ACHN renal it was over 160 µM; in the assay on DU-145 prostate it was over 160 µM; in the assay with HCC-2998 colon it was over 160 µM; in the assay on UACC-62 melanoma, 22.5 µM; in the assay with CAKI-1 renal, over 160 µM. Further, the GI50 in the assay with SW-620 colon is over 160 µM; in the assay with RXF 393 renal, 29 µM; with SK-MEL-5 melanoma, 33.9 µM; with BT-549 breast it was 89.5 µM. Also, the TGI in the assay on SF-268 CNS, in the assay with ACHN renal, in the assay with DU-145 prostate, in the assay with HCC-2998 colon, in the assay on UACC-62 melanoma and in the assay with CAKI-1 renal was over 160 µM each time. For the same compound, the TGI with SW-620 colon is over 160 µM; in the assay on RXF 393 renal, 136 µM; with SK-MEL-5 melanoma, over 160 µM; in the assay with BT-549 breast, over 160 µM.

Turning to `COc1nccc(-c2c(-c3ccc(F)cc3)ncn2C2CCC(O)CC2)n1` (centres undefined), the GI50 is over 84.6 µM in the assay with SF-268 CNS; 14.8 µM in the assay with ACHN renal; 72.8 µM in the assay with DU-145 prostate; over 100 µM in the assay on HCC-2998 colon; over 86.9 µM with UACC-62 melanoma; 25.2 µM in the assay with CAKI-1 renal. Also, the GI50 is over 70.8 µM in the assay on SW-620 colon, over 79.2 µM in the assay with RXF 393 renal, 43.1 µM in the assay with SK-MEL-5 melanoma and over 100 µM in the assay with BT-549 breast. Also, the TGI with SF-268 CNS, with ACHN renal, with DU-145 prostate, in the assay with HCC-2998 colon, with UACC-62 melanoma and with CAKI-1 renal was over 100 µM each time. Also, the TGI in the assay on SW-620 colon, with RXF 393 renal, in the assay on SK-MEL-5 melanoma and in the assay on BT-549 breast was over 100 µM in each case.

`CC(=O)OCC(=O)[C@@]1(O)[C@H](C)C[C@H]2[C@@H]3C=C(C)C4=Cc5c(cnn5-c5ccc(F)cc5)C[C@]4(C)[C@H]3[C@@H](O)C[C@@]21C`: the GI50 is 2.48 µM in the assay on SF-268 CNS; 2.5 µM with ACHN renal; 2.03 µM with DU-145 prostate; 1.88 µM in the assay on HCC-2998 colon; 1.73 µM with UACC-62 melanoma; 2.57 µM in the assay with CAKI-1 renal. In addition, the GI50 with SW-620 colon was 1.8 µM; with RXF 393 renal it was 0.709 µM; in the assay on SK-MEL-5 melanoma, 1.26 µM; in the assay on BT-549 breast, 1.77 µM. Also, the TGI in the assay with SF-268 CNS was found to be 8.39 µM; in the assay on ACHN renal it was 9.97 µM; in the assay with DU-145 prostate, 5.17 µM; with HCC-2998 colon it was 3.77 µM; in the assay on UACC-62 melanoma, 3.78 µM; in the assay with CAKI-1 renal, 10 µM. In addition, the TGI in the assay with SW-620 colon worked out at 3.41 µM; in the assay with RXF 393 renal, 2.35 µM; in the assay with SK-MEL-5 melanoma it was 2.53 µM; in the assay with BT-549 breast, 4.78 µM.

Turning to `COc1ccc2c(c1)[nH]c(=O)c1c3cccnc3cn21`, the GI50 in the assay with SF-268 CNS was 0.0686 µM; with ACHN renal, 0.082 µM; with DU-145 prostate, 0.0365 µM; in the assay with HCC-2998 colon, 0.0744 µM; in the assay on UACC-62 melanoma, 0.0431 µM; in the assay on CAKI-1 renal it was 0.0405 µM. For the same compound, the GI50 with SW-620 colon was 0.0327 µM; with RXF 393 renal, 0.0195 µM; in the assay on SK-MEL-5 melanoma, 0.025 µM; in the assay on BT-549 breast it was 0.356 µM. Moreover, the TGI is 42.7 µM with SF-268 CNS; 13 µM with ACHN renal; over 100 µM in the assay on DU-145 prostate; 17.7 µM with HCC-2998 colon; 19.3 µM in the assay on UACC-62 melanoma; 14.7 µM in the assay on CAKI-1 renal. In addition, the TGI was determined as 13.2 µM with SW-620 colon, 0.055 µM in the assay with RXF 393 renal, 0.0992 µM in the assay with SK-MEL-5 melanoma and 25.3 µM with BT-549 breast.
